Paper PMC10788941, “Solubilizer Tag Effect on PD-L1/Inhibitor Binding Properties for m-Terphenyl Derivatives” (ACS Medicinal Chemistry Letters, 2023)

How the values were obtained:
[1] = molecular target: T1, PD-1/PD-L1 complex (hPD-1, hPD-L1) (Homo sapiens, UniProt Q9NZQ7); assay: HTRF assay of PD-1/PD-L1 complex disruption (Cis-Bio kit); type: binding; conditions: disruption of PD-1/PD-L1 complex, n = 2
T1 construct: purchased Cis-Bio
From the text: 4.3. Homogenous Time-Resolved Fluorescence
HTRF (Homogeneous Time Resolved Fluorescence) is a widely used technology for homogenous analyte measurement, particularly in high-throughput screening for drug target studies.
This technology combines fluorescence resonance energy transfer (FRET) with tim e-resolved measurement. In TR-FRET assays, a signal is generated when a donor and an acceptor molecule are in proximity (so-called FRET distance), transfer energy through FRET. Both fluorophores are attached to the monoclonal antibodies that are then specifically detecting particular tags on target proteins.
The commercially available Cis-Bio assay kit was used to perform the HTRF assay. Following the standard protocol, the measurement was carried out at a 20 µL final volume with a 5 nM concentration of hPD-1 and 50 nM concentration of hPD-L1 in the final formulation. Separate dilution […]
compounds. Analyte and detection reagents (anti-analyte conjugated donor and acceptor conjugated […]
plate was left for 1 h of incubation and it was read on an HTRF certified microplate reader Tecan Spark
20M. Output data were subjected to background subtraction on negative control (no PD-1), and normalization in correlation to the positive control (no inhibitor) and averaged. Resulting data points were then fitted with Hill’s equation to generate IC50 using Mathematica 12. […]

[2] = molecular target: T2, PD-1/PD-L1 immune checkpoint (Homo sapiens, UniProt Q9NZQ7); assay: cell-based PD-1/PD-L1 immune checkpoint blockade (ICB) assay, Jurkat-ECs with CHO/TCRAct/PD-L1 cells, luciferase readout; conditions: for activation of Jurkat-ECs (fold induction): relative to DMSO-treated cells; for dose-dependent activation of Jurkat-ECs and toxicity: different concentrations, Figure S1
T2 construct: host or cells: CHO/TCRAct/PD-L1 cells (PD-L1); Jurkat-ECs (PD-1)
Description: 4.4. PD-1/PD-L1 immune checkpoint blockade (ICB) assay
For the in vitro analysis of the bioactivity of the molecules an Immune Checkpoint Blockade assay was performed 4 CHO/TCRAct/PD -L1 cells (Promega), overexpressing an artificial TCR - activator construct and PD -L1, were seeded on 96 -well white plates at the density of 10 000 cells/well.
The next day, the cells were overlaid with the effector Jurkat T cells (Jurkat -ECs, Promega, 20 000 cells/well), overexpressing PD -1 and containing construct assuring an NFAT -induced expression of luciferase, either in the presence of the indicated concentrations of the compounds with DMSO -only as a control (the concentration of DMSO was kept constant at 0.1%) or durvalumab (Selleckchem), as a positive control, with untreated cells as controls. Activation of the Jurkat -ECs, reflected by luciferase activity, was monitored by luminescence measurements after 6 h of incubation (37°C, 5%CO 2), and […]
20 min of additional incubation with the Bio-GloTM Assay reagent (Promega) at room temperature.
The luminescence was read on the Spark microplate reader (Tecan). The data is presented as fold induction of the luminescence signal relative to either untreated (for durvalumab) or DMSO-treated (for compounds) cells. Data points represent mean ± SD values from duplicates. […]
HCl, 0.25 mM oxidized glutathione, and 0.25 mM reduced glutathione. After the refolding step, the protein was dialyzed 3 times against buffer containing 10 mM Tris-HCl pH 8.0 and 20 mM NaCl. The final step of purification consisted of size exclusion chromatography using a Superdex 75 column and 10 mM Tris- HCl, 20 mM NaCl based buffer for crystallization or PBS buffer for NMR based experiments. The correctly folded state and purity of the PD-L1 protein were checked by NMR and […]
The freshly purified protein was concentrated to 5 mg/mL and then mixed in a 1:3 molar ratio with an excess of the 2f inhibitor, finally the solution was centrifuged for 1 minute at max speed. The clarified solution was then used for screening using multiple available commercial screens. The diffraction quality crystals were obtained from a sitting drop set up at room temperature with a buffer containing 27 % w/v PEG 3350, 0.1 M Bis-Tris propane, pH 7.0 and 0.2 M Lithium sulfate. Crystals were cryo-protected using glycerol and flash frozen with liquid nitrogen.
The X-ray diffraction data were collected at the BL13 - XALOC beamline at ALBA (Barcelona, Spain).6The data were indexed, integrated, and scaled using XDS, SCALE, and Aimless.
7–9 The initial phase estimates was obtained by molecular replacement calculated in Phaser using PDB:5C3T as a model.10 The refinement was performed using CCP4cloud11 and verified using Coot .12–14 The structure was deposited in the Protein Data Bank with accession number 8R6Q. The protein-ligand interactions were assessed using PLIP server15 and visualized using PyMol (The PyMOL Molecular Graphics System, Version 2.0 Schrödinger, LLC).
4.6. Crystal structure determination for compound 2a
X-ray diffraction data for single crystals of compound 2a was collected using XtalLAB Synergy-S four-circle diffractometer with a mirror monochromator and a microfocus CuKα radiation source (λ = 1.5418 Å). The CryoStream cryostat system was used to allow low-temperature

T2 sequence (Q9NZQ7 19-290): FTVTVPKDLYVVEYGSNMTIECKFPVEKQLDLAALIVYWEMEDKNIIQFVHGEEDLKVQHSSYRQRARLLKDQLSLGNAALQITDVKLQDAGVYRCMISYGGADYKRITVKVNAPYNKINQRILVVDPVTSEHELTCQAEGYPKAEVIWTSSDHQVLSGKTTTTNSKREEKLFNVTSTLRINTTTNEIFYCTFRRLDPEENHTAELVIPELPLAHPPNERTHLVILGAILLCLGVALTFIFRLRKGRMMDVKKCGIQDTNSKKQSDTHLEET
T1 sequence (Q9NZQ7 19-238 limits assumed, one chain of several): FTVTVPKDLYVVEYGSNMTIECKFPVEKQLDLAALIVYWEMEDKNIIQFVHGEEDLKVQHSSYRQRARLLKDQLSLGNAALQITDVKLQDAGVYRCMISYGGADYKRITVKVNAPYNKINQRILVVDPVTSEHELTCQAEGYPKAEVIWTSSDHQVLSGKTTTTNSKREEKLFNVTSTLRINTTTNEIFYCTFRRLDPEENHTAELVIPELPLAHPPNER

| SMILES | IC50 [1] | other results |
| --- | --- | --- |
| COc1cc(-c2cccc(-c3ccc4c(c3)OCCO4)c2Cl)ccc1CN1CCCC1C(=O)O (centres unmarked) [1a] | < 0.5 nM |  |
| COc1cc(-c2cccc(-c3ccc4c(c3)OCCO4)c2Cl)ccc1CN1CCCC1C(=O)NO (centres unmarked) [1b] | > 1000 nM |  |
| COc1cc(-c2cccc(-c3ccc4c(c3)OCCO4)c2Cl)ccc1CN1CCCC1C(=O)NN (centres unmarked) [1c] | 76.2 ± 2.35 nM |  |
| COc1cc(-c2cccc(-c3ccc4c(c3)OCCO4)c2Cl)ccc1CN1CCCC1C(=O)NN(C)C (centres unmarked) [1d] | < 0.5 nM |  |
| COc1cc(-c2cccc(-c3ccc4c(c3)OCCO4)c2Cl)ccc1CN1CCCC1C(=O)NCCN (centres unmarked) [1e] | < 0.5 nM |  |
| COc1cc(-c2cccc(-c3ccc4c(c3)OCCO4)c2Cl)ccc1CN1CCCC1C(=O)NCCO (centres unmarked) [1f] | < 0.5 nM |  |
| COc1cc(-c2cccc(-c3ccc4c(c3)OCCO4)c2Cl)ccc1CN1CCCC1C(=O)NC(CO)CO (centres unmarked) [1g] | < 0.5 nM |  |
| COc1cc(-c2cccc(-c3ccc4c(c3)OCCO4)c2Cl)ccc1CN1CCCC1C(=O)NC(CO)(CO)CO (centres unmarked) [1h] | < 0.5 nM |  |
| COc1cc(-c2cccc(-c3ccc4c(c3)OCCO4)c2Cl)ccc1CN1CCC(C(=O)O)C1 (centres unmarked) [2a] | 1.1 ± 0.07 nM |  |
| COc1cc(-c2cccc(-c3ccc4c(c3)OCCO4)c2Cl)ccc1CN1CCC(C(=O)NO)C1 (centres unmarked) [2b] | 0.94 ± 0.01 nM | activation of Jurkat-ECs (fold induction) ([2]; compound 1 μM): bioactivity was observed |
| COc1cc(-c2cccc(-c3ccc4c(c3)OCCO4)c2Cl)ccc1CN1CCC(C(=O)NN)C1 (centres unmarked) [2c] | < 0.5 nM |  |
| COc1cc(-c2cccc(-c3ccc4c(c3)OCCO4)c2Cl)ccc1CN1CCC(C(=O)NN(C)C)C1 (centres unmarked) [2d] | 12 ± 2.01 nM | activation of Jurkat-ECs (fold induction) ([2]; compound 6.4 μM): activity was retained; dose-dependent activation of Jurkat-ECs and toxicity [2]: highest dose-dependent activity and lowest toxicity |
| COc1cc(-c2cccc(-c3ccc4c(c3)OCCO4)c2Cl)ccc1CN1CCC(C(=O)NCCN)C1 (centres unmarked) [2e] | 4.94 ± 0.37 nM | activation of Jurkat-ECs (fold induction) ([2]; compound 1 μM): bioactivity was observed; activation of Jurkat-ECs (fold induction) ([2]; compound 6.4 μM, 6.4 µM): T cell activation dropped down and tox. |
| COc1cc(-c2cccc(-c3ccc4c(c3)OCCO4)c2Cl)ccc1CN1CCC(C(=O)NCCO)C1 (centres unmarked) [2f] | < 0.5 nM | dose-dependent activation of Jurkat-ECs and toxicity [2]: highest dose-dependent activity and lowest toxicity |
| COc1cc(-c2cccc(-c3ccc4c(c3)OCCO4)c2Cl)ccc1CN1CCC(C(=O)NC(CO)CO)C1 (centres unmarked) [2g] | < 0.5 nM | activation of Jurkat-ECs (fold induction) ([2]; compound 1 μM): bioactivity was observed; activation of Jurkat-ECs (fold induction) ([2]; compound 6.4 μM): activity was retained; dose-dependent activation of Jurkat-ECs and toxicity [2]: highest dose-dependent activity and lowest toxicity |
| COc1cc(-c2cccc(-c3ccc4c(c3)OCCO4)c2Cl)ccc1CN1CCC(C(=O)NC(CO)(CO)CO)C1 (centres unmarked) [2h] | < 0.5 nM | activation of Jurkat-ECs (fold induction) ([2]; compound 1 μM): bioactivity was observed; activation of Jurkat-ECs (fold induction) ([2]; compound 6.4 μM): T cell activation dropped down |
| COc1cc(-c2cccc(-c3ccc4c(c3)OCCO4)c2Cl)ccc1CN1CCCCC1C(=O)O (centres unmarked) [3a] | 0.58 ± 0.05 nM |  |
| COc1cc(-c2cccc(-c3ccc4c(c3)OCCO4)c2Cl)ccc1CN1CCCCC1C(=O)NN (centres unmarked) [3c] | 16.7 ± 1.63 nM |  |

| SMILES | IC50 [1] | other results |
| --- | --- | --- |
| COc1cc(-c2cccc(-c3ccc4c(c3)OCCO4)c2Cl)ccc1CN1CCCCC1C(=O)NN(C)C (centres unmarked) [3d] | 56 ± 1.33 nM |  |
| COc1cc(-c2cccc(-c3ccc4c(c3)OCCO4)c2Cl)ccc1CN1CCCCC1C(=O)NCCO (centres unmarked) [3f] | 0.9 ± 0.05 nM |  |
| COc1cc(-c2cccc(-c3ccc4c(c3)OCCO4)c2Cl)ccc1CN1CCCCC1C(=O)NC(CO)CO (centres unmarked) [3g] | 63.6 ± 1.86 nM |  |
| COc1cc(-c2cccc(-c3ccc4c(c3)OCCO4)c2Cl)ccc1CN1CCCCC1C(=O)NC(CO)(CO)CO (centres unmarked) [3h] | 477 ± 83.5 nM |  |
| COc1cc(-c2cccc(-c3ccc4c(c3)OCCO4)c2Cl)ccc1CN1CCCC(C(=O)O)C1 (centres unmarked) [4a] | < 0.5 nM |  |
| COc1cc(-c2cccc(-c3ccc4c(c3)OCCO4)c2Cl)ccc1CN1CCCC(C(=O)NO)C1 (centres unmarked) [4b] | 1.09 ± 0.07 nM |  |
| COc1cc(-c2cccc(-c3ccc4c(c3)OCCO4)c2Cl)ccc1CN1CCCC(C(=O)NN)C1 (centres unmarked) [4c] | 79.9 ± 5.7 nM |  |
| COc1cc(-c2cccc(-c3ccc4c(c3)OCCO4)c2Cl)ccc1CN1CCCC(C(=O)NN(C)C)C1 (centres unmarked) [4d] | 37 ± 1.75 nM |  |
| COc1cc(-c2cccc(-c3ccc4c(c3)OCCO4)c2Cl)ccc1CN1CCCC(C(=O)NCCO)C1 (centres unmarked) [4f] | < 0.5 nM |  |
| COc1cc(-c2cccc(-c3ccc4c(c3)OCCO4)c2Cl)ccc1CN1CCCC(C(=O)NC(CO)(CO)CO)C1 (centres unmarked) [4h] | 19.3 ± 1.22 nM |  |
| COc1cc(-c2cccc(-c3ccc4c(c3)OCCO4)c2Cl)ccc1CN1CCC(C(=O)O)CC1 [5a] | < 0.5 nM |  |
| COc1cc(-c2cccc(-c3ccc4c(c3)OCCO4)c2Cl)ccc1CN1CCC(C(=O)NO)CC1 [5b] | 766 ± 71.5 nM |  |
| COc1cc(-c2cccc(-c3ccc4c(c3)OCCO4)c2Cl)ccc1CN1CCC(C(=O)NN)CC1 [5c] | 96.5 ± 2.71 nM |  |
| COc1cc(-c2cccc(-c3ccc4c(c3)OCCO4)c2Cl)ccc1CN1CCC(C(=O)NN(C)C)CC1 [5d] | < 0.5 nM |  |
| COc1cc(-c2cccc(-c3ccc4c(c3)OCCO4)c2Cl)ccc1CN1CCC(C(=O)NCCN)CC1 [5e] | < 0.5 nM |  |
| COc1cc(-c2cccc(-c3ccc4c(c3)OCCO4)c2Cl)ccc1CN1CCC(C(=O)NCCO)CC1 [5f] | 0.55 ± 0.03 nM |  |
| COc1cc(-c2cccc(-c3ccc4c(c3)OCCO4)c2Cl)ccc1CN1CCC(C(=O)NC(CO)CO)CC1 [5g] | < 0.5 nM |  |
| COc1cc(-c2cccc(-c3ccc4c(c3)OCCO4)c2Cl)ccc1CN1CCC(C(=O)NC(CO)(CO)CO)CC1 [5h] | < 0.5 nM |  |
